# Columns and labels:
# [1] = Subjective effects in human volunteers (standardized questionnaires); type: in vivo
# Description: The compound from example 6 (N,N diisopropyltryptamine-4-glutarate) is administered to human volunteers by subcutaneous injection of a sterile solution (1 mg/ml) at a dosage of 0.1-0.6 mg/kg. Blood samples are taken at 5, 15, 30, 45, 60, 120, 240 and 480 min and 24 h. Samples are analyzed by LCMS for drug and prodrug. Subjective effects are measured using standardized questionnaires.
# The compound from example 2 (4-hemisuccinate of 4-OH-DiPT) is administered to human volunteers by oral ingestion of a tablet containing 50 mg of the prodrug. Blood samples are taken at 5, 15, 30, 45, 60, 120, 240 and 480 min and 24 h. Samples are analyzed by LCMS for drug and prodrug. Subjective effects are measured using standardized questionnaires.
# [2] = Head Twitch Response (HTR) or Wet Dog Shakes (WDS) by visual observation; type: in vivo; details: rats; highest intensity of head twitch at the Tmax of the PK profile
# Description: In some cases, Head Twitch Response (HTR) or Wet Dog Shakes (WDS) were recorded by visual observation and counting of the relevant muscle twitches.
# [3] = Control hydrolysis in phosphate buffered saline (PBS, pH 7.4); type: physicochemical; details: PBS (pH7)
# Description: (§1) Pooled mixed gender human plasma (2 ml), mouse plasma, rat plasma and dog plasma were equilibrated at 37° C. The compound of example 9 was added so as to achieve a concentration of 1.0 ug/mL. Aliquots (50 uL) of the mixture were withdrawn at timed intervals (0, 0.004, 0.5, 1, 2 and 4 hours) and quenched with 200 μL of methanol/acetonitrile (1:1). The samples were vortexed and stored at −80° C. until analysis. Assays were done in triplicate. Control samples were done in phosphate buffered saline (PBS, pH 7.4) and simulated gastric fluid (SGF, pH 2). Analysis of samples as performed by HPLC-MS to determine the amounts of prodrug and drug in each sample tested. Table 1 provides the mean concentrations of prodrug remaining at different time points of the experiment.
# [4] = Use in treatment of a human patient suffering depression; type: in vivo; details: i.m. or s.c. injection ca. 25 mg or oral ca. 50-200 mg
# Description: The compound of example 6 (N,N diisopropyltryptamine-4-glutarate) is administered by i.m. or s.c. injection (ca. 25 mg; 0.4-0.5 mg/kg) to a human patient suffering depression, or by oral administration (ca. 50-200 mg; 0.8-3.2 mg/kg) with tablets. In another example of use, the compound of example 6 (4-hemiglutarate of 4-OH-DiPT) is similarly administered. Prior to the dosing session, the patient is qualified for the experience by measurement of depression scores, screened for exclusions (e.g. history of psychoses, unfavorable heart condition, pregnancy) and finally, the patient is encouraged to formulate an intent for the dosing session. Dosing is performed in a quiet clinic setting with the patient resting comfortably in an inclined, but unrestrained, position to avoid falls. The patients' eyes are covered, and music is applied. The drug is administered. After 4 h, the patient reports no longer feeling the effects of the drug and is asked to sit up while under supervision. Feeling normal, the patient is allowed to stand (supervised) and feeling in control, is allowed to move around. One hour later, the patient is discharged. Later by 24 h, the patient returns to the clinic to meet with a psychotherapist to recount the session. The patient records a depression score via questionnaire and is again discharged. […]
# [5] = Prodrug hydrolysis in dog plasma at 37° C; type: in vitro ADME; details: 1.0 ug/mL
# Description: as §1
# [6] = Prodrug hydrolysis in rat plasma at 37° C; type: in vitro ADME; details: 1.0 ug/mL
# Description: as §1
# [7] = Prodrug hydrolysis in pooled mixed gender human plasma at 37° C; type: in vitro ADME; details: 1.0 ug/mL
# Description: as §1
# [8] = Prodrug hydrolysis in mouse plasma at 37° C; type: in vitro ADME; details: 1.0 ug/mL
# Description: as §1
# [9] = Control hydrolysis in simulated gastric fluid (SGF, pH 2); type: physicochemical; details: SGF (pH2)
# Description: as §1
# [10] = Solubility in water; type: physicochemical; details: thermodynamic from solid; HCl salt solid dissolved in water
# Description: The structure was confirmed by NMR. Purity was determined by HPLC (>97%). The solid was resuspended in 1M HCl-dioxane to form the HCl salt which was filtered, washed with ether and dried. Yield (>95%, purity >95%; DSC endotherm 174C). The solid could be dissolved in water up to 50 mg/ml and lyophilized to form a white “cake”.
# [11] = Pharmacokinetics in rats (intravenous and subcutaneous injection); type: in vivo; details: i.v. and s.c., 1.4-2 mg/kg, LCMS, rapidly converted to the active form
# Description: The compound from example 9 was administered to rats by injection (intravenous and subcutaneous) with a sterile solution (2 mg/ml) at a rate of 1.4-2 mg/kg. Blood samples were taken at 15, 30, 45, 60, 120, 240 min and 360 min and analyzed by LCMS for drug and prodrug. PK profile for the prodrug and active species were obtained and relative bioavailability was determined for each of the routes of administration.
# Pharmacokinetics of 1.34 mg/ml 4-HO-DiPT HCl administered by intravenous or subcutaneous injection were performed in parallel under identical conditions as above. […] Immediately obvious is the increased variability with the active species when administered s.c. and intravenous administrations.
smiles,measurement,setting,value
"CC(C)N(CCc1c[nH]c2cccc(OC(=O)CCC(=O)O)c12)C(C)C [Example 2, N,N diisopropyltryptamine-4-succinate]",Subjective effects: intensity of psychoactivity,[1]; oral tablet 50 mg,correlates with blood levels
"CC(C)N(CCc1c[nH]c2cccc(O)c12)C(C)C [Example 4-HO-DIPT, 4-hydroxy-N,N-diisopropyltryptamine]",Intensity of the HTR versus plasma concentration of 4-HO-DIPT,[2],proportional to the plasma concentration
"CC(C)N(CCc1c[nH]c2cccc(OC(=O)CCCC(=O)O)c12)C(C)C [Example 6, N,N diisopropyltryptamine-4-glutarate]",Percentage of remaining prodrug,[3]; 0 h,100%
same,Percentage of remaining prodrug,[3]; 4 h,93%
same,Time after which the patient reports no longer feeling the effects of the drug,[4],4 h
same,Subjective effects: intensity of psychoactivity,"[1]; subcutaneous injection, 0.1-0.6 mg/kg",correlates with blood levels
same,Percentage of remaining prodrug,[5]; 0 h,100%
same,Percentage of remaining prodrug,[5]; 0.004 h,100%
same,Percentage of remaining prodrug,[5]; 0.5 h,87%
same,Percentage of remaining prodrug,[5]; 1 h,79%
same,Percentage of remaining prodrug,[5]; 2 h,64%
same,Percentage of remaining prodrug,[5]; 4 h,39%
same,Percentage of remaining prodrug,[6]; 0 h,100%
same,Percentage of remaining prodrug,[6]; 0.004 h,0%
same,Percentage of remaining prodrug,[6]; 0.5 h,0%
same,Percentage of remaining prodrug,[6]; 1 h,0%
same,Percentage of remaining prodrug,[6]; 2 h,0%
same,Percentage of remaining prodrug,[6]; 4 h,0%
same,Percentage of remaining prodrug,[7]; 0 h,100%
same,Percentage of remaining prodrug,[7]; 0.004 h,100%
same,Percentage of remaining prodrug,[7]; 0.5 h,3.0%
same,Percentage of remaining prodrug,[7]; 1 h,0.23%
same,Percentage of remaining prodrug,[7]; 2 h,0%
same,Percentage of remaining prodrug,[7]; 4 h,0%
same,Percentage of remaining prodrug,[8]; 0 h,100%
same,Percentage of remaining prodrug,[8]; 0.004 h,0%
same,Percentage of remaining prodrug,[8]; 0.5 h,0%
same,Percentage of remaining prodrug,[8]; 1 h,0%
same,Percentage of remaining prodrug,[8]; 2 h,0%
same,Percentage of remaining prodrug,[8]; 4 h,0%
same,Percentage of remaining prodrug,[9]; 0 h,100%
same,Percentage of remaining prodrug,[9]; 0.004 h,100%
same,Percentage of remaining prodrug,[9]; 0.5 h,100%
same,Percentage of remaining prodrug,[9]; 1 h,100%
same,Percentage of remaining prodrug,[9]; 4 h,101%
same,solubility,[10],≤ 50 mg/mL
"CC(C)N(CCc1c[nH]c2cccc(OC(=O)CCCC(=O)O)c12)C(C)C.Cl [Example 9, HCl salt of N,N diisopropyltryptamine-4-glutarate]",Prodrug in blood samples after injection,[11],not observed

# Reference: patent US20250051278A1, “[…]” (Reunion Neuroscience, Inc., priority 2021, published 2025)
